From patent US10183971B2, “SAA-domain-specific antibodies and peptide antagonists and use thereof to treat inflammatory diseases” (The Feinstein Institute For Medical Research, priority 2013, dated 2019)
Entries after “also recorded” stand apart in the source; their conditions may differ.

Legend:
[1] = test system: HMGB1 release; assay: HMGB1 release in vitro by inflammatory mediators (data not shown); assay type: cell-based
[2] = test system: SAA; assay: SAA-induced HMGB1 release in macrophages (Western blotting); assay type: cell-based; settings: in vitro
Protocol: FIG. 5A-5C. Epitope mapping of SAA-specific antibodies using a peptide library. A, Sequence of synthetic SAA peptides (SEQ ID NO:19). […] Macrophages were stimulated with SAA in the absence or presence of different (R1, R2, R3) IgGs, and HMGB1 release was assayed by Western blotting. C, Epitope mapping by dot blot. Note that all rabbit IgGs capable of protecting against lethal endotoxemia cross-reacted with P8 peptide.
Epitope mapping of SAA-neutralizing antibodies. To test the possibility that antibodies or peptides antagonists targeting different SAA domains may divergently affect the outcomes of LSI, SAA-specific antibodies were generated, and the epitopes of these polyclonal IgGs determined using a peptide library (18-mer offset by 6) spanning the entire SAA protein (FIG. 5A). […] Following repetitive immunizations, the titers of anti-SAA IgGs were dramatically elevated in most rabbits (e.g., R1 and R3).

Substance | induction of HMGB1 release in vitro [1] | inhibition of SAA-induced HMGB1 release [2] | effect of pre-incubation with peptide on anti-SAA-IgG-mediated inhibition of SAA-induced HMGB1 release [2]
IL-8: inflammatory mediator, sepsis surrogate marker | unable to induce HMGB1 release |  | 
RSFFSFLGEAFDGARDMW (listed as Homo sapiens) [Clone P4, SAA peptide corresponding to residues 1-18] |  | dose-dependently inhibited; also recorded: inhibited SAA-induced HMGB1 release | 
IL-6: inflammatory mediator, sepsis surrogate marker | unable to induce HMGB1 release |  | 
EGF: cytoprotective peptide (NSDSECPLSHDGYCLHDGVCMYIEALDKYACNCVVGYIGERCQYRDLKWWELR; Epidermal growth factor; UniProt P01133 971-1023, looked up) | unable to induce HMGB1 release |  | 
REANYIGSDKYFHARGNY (listed as Homo sapiens) [Clone P8, SAA peptide (18-mer) corresponding to residues 25-42] |  | dose-dependently inhibited | impaired
